What all share (type): cell-based
Common to all, as to settings: CreLuc reporter gene assay

The target of one assay is T1, hNPY2R (Homo sapiens, UniProt P49146).
T1 construct: expressed in transfected cells; host or cells: HEK-293 cells carrying a CRE-luciferase reporter gene
T1 sequence (P49146 1-381): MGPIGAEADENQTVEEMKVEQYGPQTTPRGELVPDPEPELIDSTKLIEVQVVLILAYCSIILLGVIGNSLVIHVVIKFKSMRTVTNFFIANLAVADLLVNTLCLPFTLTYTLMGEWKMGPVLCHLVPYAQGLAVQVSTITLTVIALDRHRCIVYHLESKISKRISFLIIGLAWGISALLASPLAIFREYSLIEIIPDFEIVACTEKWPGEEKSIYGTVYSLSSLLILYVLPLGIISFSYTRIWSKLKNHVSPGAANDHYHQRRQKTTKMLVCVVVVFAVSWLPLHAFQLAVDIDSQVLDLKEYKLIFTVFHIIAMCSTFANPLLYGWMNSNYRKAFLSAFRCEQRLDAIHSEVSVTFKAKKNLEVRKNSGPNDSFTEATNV
Description: hNPY2R CreLuc reporter gene assay in 0.5% and 100% plasma. The essentials: (§1)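 HEK cells (GLP-1R, NPY2R) or CHO cells (GIPR) carrying a CRE-luciferase reporter, incubated 4 h at 37 °C with peptides in HBSS/20 mM HEPES pH 7.4 plus 0.5% human plasma, or in 100% plasma. Luminescence read; EC50 from 8-point variable-slope sigmoid fits.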
For orientation: In a reporter assay the amount or activity of a reporter protein is the signal.

In a further assay the target is T2, hGIPR (Homo sapiens, UniProt P48546).
T2 construct: expressed in transfected cells; host or cells: CHO cells carrying a CRE-luciferase reporter gene
T2 sequence (P48546 22-466): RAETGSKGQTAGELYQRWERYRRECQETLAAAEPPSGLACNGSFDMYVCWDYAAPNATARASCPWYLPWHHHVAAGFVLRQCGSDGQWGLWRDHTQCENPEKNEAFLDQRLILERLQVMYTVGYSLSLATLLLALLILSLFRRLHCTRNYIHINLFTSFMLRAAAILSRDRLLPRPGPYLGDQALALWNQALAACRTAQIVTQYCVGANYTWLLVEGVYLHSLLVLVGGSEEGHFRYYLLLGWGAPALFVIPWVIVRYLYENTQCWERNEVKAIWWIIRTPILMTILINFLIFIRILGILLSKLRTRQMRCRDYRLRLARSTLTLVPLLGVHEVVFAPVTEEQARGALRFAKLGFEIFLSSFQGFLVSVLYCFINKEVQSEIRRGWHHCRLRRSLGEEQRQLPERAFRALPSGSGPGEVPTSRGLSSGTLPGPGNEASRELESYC
Description: hGIPR CreLuc reporter gene assay in 0.5% and 100% plasma. The gist of the method: as §1

For another assay, the target named is T3, hGLP1R (Homo sapiens, UniProt P43220).
T3 construct: expressed in transfected cells; host or cells: HEK-293 cells carrying a CRE-luciferase reporter gene
T3 sequence (P43220 24-463): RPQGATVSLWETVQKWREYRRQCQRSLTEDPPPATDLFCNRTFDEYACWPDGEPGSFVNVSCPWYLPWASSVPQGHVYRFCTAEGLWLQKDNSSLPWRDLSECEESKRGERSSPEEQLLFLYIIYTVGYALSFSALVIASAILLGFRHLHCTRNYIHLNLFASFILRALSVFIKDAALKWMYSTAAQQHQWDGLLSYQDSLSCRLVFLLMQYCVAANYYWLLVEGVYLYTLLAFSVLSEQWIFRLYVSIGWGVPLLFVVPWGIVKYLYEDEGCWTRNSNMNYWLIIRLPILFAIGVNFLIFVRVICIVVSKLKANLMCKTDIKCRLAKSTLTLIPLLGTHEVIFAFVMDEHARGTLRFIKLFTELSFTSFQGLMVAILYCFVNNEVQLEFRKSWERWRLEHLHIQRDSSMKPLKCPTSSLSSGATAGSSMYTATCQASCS
The experiment in a line: hGLP1R CreLuc reporter gene assay in 0.5% and 100% plasma. The essentials:
as §1

[1] abbreviates: 0.5% human plasma, read-out: hNPY2R 0.5% hP.
[2] abbreviates: 100% human plasma, read-out: hNPY2R 100% hP.
Setting [3] is: 0.5% human plasma, read-out: hGIPR 0.5% hP.
Where [4] appears, read: 100% human plasma, read-out: hGIPR 100% hP.
[5] abbreviates: 0.5% human plasma, read-out: hGLP1R 0.5% hP.
Setting [6] is: 100% human plasma, read-out: hGLP1R 100% hP.

Like-named read-outs stand apart in the source and are kept apart here. Starred links: 1 amine or outer side, 2 acyl side, 3 side chain; linkers in the order of their positions; H or OH if unused. Non-standard residues stand in square brackets, D forms with d. Groups on a side chain read outwards from the residue. No end group written: not given here. *: point of attachment. C20 diacid = O=C(O)CCCCCCCCCCCCCCCCCCC(=O)*; C18 diacid = O=C(O)CCCCCCCCCCCCCCCCC(=O)*; γGlu = O=C(O)[C@H](CCC(=O)[*:2])N[*:1]; εLys = N[C@@H](CCCCN[*:1])C(=O)[*:2]; hArg = N=C(N)NCCCC[C@H](N)C(=O)O; β3hQ = NC(=O)CC[C@H](N)CC(=O)O; AEEA = NCCOCCOCC(=O)O; Aib = CC(C)(N)C(=O)O; Ahx = NCCCCCC(=O)O A value given as a limit tells only on which side of the number the result lay.

For the compound “H-Y[Aib]EGTFTSDYSI[Aib]LEKQAQ[Aib]AFVEWLIK([εLys-γGlu-γGlu-γGlu-γGlu-γGlu-γGlu-C20 diacid])GGPSSGASL[Aib]HYYNWLTRQRY-NH2 [Compound 129, Y-Aib-E-G-T-F-T-S-D-Y-S-I-Aib-L-E-K-Q-A-Q-Aib-A-F-V-E-W-L-I-K(1,3)-G-G-P-S-S-G-A-S-L-Aib-H-Y-Y-N-W-L-T-R-Q-R-Y-NH2.C20DA-gGlu-gGlu-gGlu-gGlu-gGlu-gGlu-eLys(1,2)]”, the EC50 on hNPY2R (setting [1]) was determined as 30.9 nM; at hNPY2R (setting [2]) it was 87.6 nM; at hGIPR (setting [3]) it was 0.06 nM; on hGIPR (setting [4]), 0.5 nM; on hGLP1R (setting [5]) it was 0.04 nM.
With “H-Y[Aib]EGTFTSDYSI[Aib]LEKQAQ[Aib]AFVEWLIK([γGlu-γGlu-γGlu-γGlu-γGlu-C20 diacid])GGPSEGASLRHYYNWLTRQRY-NH2 [Compound 289, Y-Aib-E-G-T-F-T-S-D-Y-S-I-Aib-L-E-K-Q-A-Q-Aib-A-F-V-E-W-L-I-K(1,3)-GGPSEGASLRHYYNWLTRQRY-NH2.C20DA-gGlu-gGlu-gGlu-gGlu-gGlu(1,2)]”, the EC50 on hNPY2R (setting [1]) is 11.1 nM; at hNPY2R (setting [2]), 56.3 nM; at hGIPR (setting [3]), 0.7 nM; at hGIPR (setting [4]) it was 1.75 nM; on hGLP1R (setting [5]), 0.14 nM.
Take “H-Y[Aib]EGTFTSDYSI[Aib]LEKQAQ[Aib]AFVEWLIK([εLys-γGlu-γGlu-γGlu-γGlu-γGlu-γGlu-C20 diacid])GGPSSGASLRHY[Aib]NR[Aib]TRQRY-NH2 [Compound 18, Y-Aib-E-G-T-F-T-S-D-Y-S-I-Aib-L-E-K-Q-A-Q-Aib-A-F-V-E-W-L-I-K(1,3)-G-G-P-S-S-G-A-S-L-R-H-Y-Aib-N-R-Aib-T-R-Q-R-Y-NH2.C20DA-gGlu-gGlu-gGlu-gGlu-gGlu-gGlu-eLys(1,2)]”: the EC50 at hNPY2R (setting [1]) was determined as 85.7 nM; on hGIPR (setting [3]), 0.36 nM; on hGLP1R (setting [5]), 0.12 nM.
Consider “H-Y[Aib]EGTFTSDYSI[Aib]LEKQAQ[Aib]AFVEWLIK([Ahx-γGlu-γGlu-γGlu-γGlu-γGlu-γGlu-C18 diacid])GGPSEGASLRHYYNWLTRQRY-NH2 [Compound 303, Y-Aib-E-G-T-F-T-S-D-Y-S-I-Aib-L-E-K-Q-A-Q-Aib-A-F-V-E-W-L-I-K(1,3)-GGPSEGASLRHYYNWLTRQRY-NH2.C18DA-gGlu-gGlu-gGlu-gGlu-gGlu-gGlu-AHX(1,2)]”, for which the EC50 is 122 nM on hNPY2R (setting [2]), 0.36 nM at hGIPR (setting [3]) and 0.2 nM on hGLP1R (setting [5]).
Taken in the same sequence, the figures for “Y[Aib]EGTFTSDYSI[Aib]LEKQAQ[Aib]AFVQWLIK([Glu-γGlu-γGlu-γGlu-γGlu-C20 diacid])GGPSEGASLRHYYNWLTRQRY-NH2 [Compound 243, Y-Aib-E-G-T-F-T-S-D-Y-S-I-Aib-L-E-K-Q-A-Q-Aib-A-F-V-Q-W-L-I-K(1,3)-GGPSEGASLRHYYNWLTRQRY-NH2.C20DA-gGlu-gGlu-gGlu-gGlu-Glu(1,2)]” were 50.6 nM, 0.54 nM and 0.12 nM.
Regarding “H-Y[Aib]EGTFTSDYSI[Aib]LEKQAQ[Aib]AFVEWLIK([εLys-γGlu-γGlu-γGlu-γGlu-γGlu-γGlu-C20 diacid])GGPSEGASLRHYYNWLTR[β3hQ]RY-NH2 [Compound 277, Y-Aib-E-G-T-F-T-S-D-Y-S-I-Aib-L-E-K-Q-A-Q-Aib-A-F-V-E-W-L-I-K(1,3)-G-G-P-S-E-G-A-S-L-R-H-Y-Y-N-W-L-T-R-bHGln-R-Y-NH2.C20DA-gGlu-gGlu-gGlu-gGlu-gGlu-gGlu-eLys(1,2)]”, the EC50 on hNPY2R (setting [1]) was above 99.9 nM; on hGIPR (setting [3]) it was 0.11 nM; on hGIPR (setting [4]), 0.68 nM; on hGLP1R (setting [5]), 0.19 nM.
In the case of “H-Y[Aib]EGTFTSDYSI[Aib]LEKQAQ[Aib]AFVEWLIK([εLys-γGlu-γGlu-γGlu-γGlu-γGlu-γGlu-C20 diacid])GGPSSGATLRHYYNWLTRQRY-NH2 [Compound 91, Y-Aib-E-G-T-F-T-S-D-Y-S-I-Aib-L-E-K-Q-A-Q-Aib-A-F-V-E-W-L-I-K(1,3)-GGPSSGATLRHYYNWLTRQRY-NH2.C20DA-gGlu-gGlu-gGlu-gGlu-gGlu-gGlu-eLys(1,2)]”, the EC50 at hNPY2R (setting [1]) was found to be 16.2 nM; on hNPY2R (setting [2]), 53.1 nM; on hGIPR (setting [3]), 0.21 nM; on hGIPR (setting [4]), 1.72 nM; at hGLP1R (setting [5]), 0.17 nM.
For “H-Y[Aib]EGTFTSDYSI[Aib]LEEQAQ[Aib]AFVEWLIK([εLys-AEEA-γGlu-γGlu-γGlu-γGlu-γGlu-C20 diacid])GGPSSGASLRHYYNWLTRQRY-NH2 [Compound 110, Y-Aib-E-G-T-F-T-S-D-Y-S-I-Aib-L-E-E-Q-A-Q-Aib-A-F-V-E-W-L-I-K(1,3)-GGPSSGASLRHYYNWLTRQRY-NH2.C20DA-gGlu-gGlu-gGlu-gGlu-gGlu-OEG-eLys(1,2)]”, the EC50 amounted to 17.5 nM at hNPY2R (setting [1]), 0.15 nM at hGIPR (setting [3]), 1.14 nM at hGIPR (setting [4]) and 0.15 nM at hGLP1R (setting [5]).
As for “H-Y[Aib]EGTFTSDYSI[Aib]LEKQAQ[Aib]AFVQWLIK([εLys-γGlu-γGlu-γGlu-γGlu-γGlu-C20 diacid])GGPSEYASLRHYYNWLTRQRY-NH2 [Compound 189, Y-Aib-E-G-T-F-T-S-D-Y-S-I-Aib-L-E-K-Q-A-Q-Aib-A-F-V-Q-W-L-I-K(1,3)-GGPSEYASLRHYYNWLTRQRY-NH2.C20DA-gGlu-gGlu-gGlu-gGlu-gGlu-eLys(1,2)]”, the EC50 at hNPY2R (setting [1]) was 8.03 nM; on hNPY2R (setting [2]), 45.8 nM; at hGIPR (setting [3]), 0.31 nM; at hGLP1R (setting [5]) it was 0.21 nM; at hGLP1R (setting [6]) it was 10.2 nM.
In the case of `CC[C@H](C)[C@H](NC(=O)[C@H](CC(C)C)NC(=O)[C@H](Cc1c[nH]c2ccccc12)NC(=O)[C@H](CCC(N)=O)NC(=O)[C@@H](NC(=O)[C@H](Cc1ccccc1)NC(=O)[C@H](CCC(=O)O)NC(=O)C(C)(C)NC(=O)[C@H](CCC(N)=O)NC(=O)[C@H](C)NC(=O)[C@H](CCC(N)=O)NC(=O)[C@H](CCCCN)NC(=O)[C@H](CCC(=O)O)NC(=O)[C@H](CC(C)C)NC(=O)C(C)(C)NC(=O)[C@@H](NC(=O)[C@H](CO)NC(=O)[C@H](Cc1ccc(O)cc1)NC(=O)[C@H](CC(=O)O)NC(=O)[C@H](CO)NC(=O)[C@@H](NC(=O)[C@H](Cc1ccccc1)NC(=O)[C@@H](NC(=O)CNC(=O)[C@H](CCC(=O)O)NC(=O)C(C)(C)NC(=O)[C@@H](N)Cc1ccc(O)cc1)[C@@H](C)O)[C@@H](C)O)[C@@H](C)CC)C(C)C)C(=O)N[C@@H](CCCCNC(=O)[C@H](CCC(=O)O)NC(=O)[C@H](CCC(=O)O)NC(=O)[C@H](CCC(=O)O)NC(=O)[C@H](CCC(=O)O)NC(=O)[C@H](CCC(=O)O)NC(=O)CCCCCCCCCCCCCCCCC(=O)O)C(=O)NCC(=O)NCC(=O)N1CCC[C@H]1C(=O)N[C@@H](CO)C(=O)N[C@@H](CCC(=O)O)C(=O)NCC(=O)N[C@@H](C)C(=O)N[C@@H](CO)C(=O)N[C@@H](CC(C)C)C(=O)N[C@@H](CCCNC(=N)N)C(=O)N[C@@H](Cc1c[nH]cn1)C(=O)N[C@@H](Cc1ccc(O)cc1)C(=O)N[C@@H](Cc1ccc(O)cc1)C(=O)N[C@@H](CC(N)=O)C(=O)N[C@@H](Cc1c[nH]c2ccccc12)C(=O)N[C@@H](CC(C)C)C(=O)N[C@H](C(=O)N[C@@H](CCCNC(=N)N)C(=O)N[C@@H](CCC(N)=O)C(=O)N[C@@H](CCCNC(=N)N)C(=O)N[C@@H](Cc1ccc(O)cc1)C(N)=O)[C@@H](C)O` [Compound 176, Y-Aib-E-G-T-F-T-S-D-Y-S-I-Aib-L-E-K-Q-A-Q-Aib-E-F-V-Q-W-L-I-K(1,3)-GGPSEGASLRHYYNWLTRQRY-NH2.C18DA-E-E-E-E-E(1,2)], the EC50 on hNPY2R (setting [1]) worked out at 30.4 nM; at hNPY2R (setting [2]), 197 nM; on hGIPR (setting [3]) it was 0.68 nM; on hGLP1R (setting [5]), 0.29 nM.
For “H-Y[Aib]EGTFTSDYSI[Aib]LEKQAQ[Aib]AFVEWLIK([εLys-γGlu-γGlu-γGlu-γGlu-γGlu-γGlu-C20 diacid])GGPSSGAS[Aib]RHYYNWLT[hArg]QR[dY]-NH2 [Compound 26, Y-Aib-E-G-T-F-T-S-D-Y-S-I-Aib-L-E-K-Q-A-Q-Aib-A-F-V-E-W-L-I-K(1,3)-G-G-P-S-S-G-A-S-Aib-R-H-Y-Y-N-W-L-T-hArg-Q-R-DTyr-NH2.C20DA-gGlu-gGlu-gGlu-gGlu-gGlu-gGlu-eLys(1,2)]”, the EC50 is above 100 nM on hNPY2R (setting [1]); 0.09 nM on hGIPR (setting [3]); 0.7 nM on hGIPR (setting [4]); 0.07 nM at hGLP1R (setting [5]); 1.18 nM at hGLP1R (setting [6]).
